The values below come from US10934302B1, “SHP2 phosphatase inhibitors and methods of use thereof” (Relay Therapeutics, Inc., priority 2018, dated 2021).

What all share (format): cell-based
For assay [1], the system named is NCI—H23 (KRAS G12C mutant non-small cell lung cancer cells). Nature of the assay: Combination growth inhibition (isobologram), NCI-H23. The following applies: ARS-1620 (KRAS G12C inhibitor) combined with a SHP2 inhibitor of the instant disclosure, FIG. 2B.
The subject of assay [2] is HuH-7 (hepatocellular carcinoma cells). Nature of the assay: Combination growth inhibition (isobologram), HuH-7. The following applies: AZD-4547 (FGFR inhibitor) combined with a SHP2 inhibitor of the instant disclosure; HuH-7 cells; FIG. 3.
Assay [3] has as its system NCI—H3122 (non-small cell lung cancer cells). Nature of the assay: Combination growth inhibition (isobologram), NCI-H3122. The following applies: crizotinib (ALK inhibitor) combined with a SHP2 inhibitor of the instant disclosure, FIG. 1B.
The test system of assay [4] is NCI—N87 (gastric cancer cells). The assay can be described thus: Combination growth inhibition (isobologram), NCI-N87. The following applies: selumetinib (MEK inhibitor) combined with a SHP2 inhibitor of the instant disclosure, FIG. 2A.

As for `C=CC(=O)N1CCN(c2ncnc3c(F)c(-c4c(O)cccc4F)c(Cl)cc23)CC1` [ARS-1620], the “growth inhibition (isobologram)” value in assay [1] was “synergistic growth inhibition”.
With `COc1cc(CCc2cc(NC(=O)c3ccc(N4CC(C)NC(C)C4)cc3)n[nH]2)cc(OC)c1` (stereo not shown) [AZD-4547], in assay [2], the “growth inhibition (isobologram)” value is “synergistic growth inhibition”.
For `C[C@@H](Oc1cc(-c2cnn(C3CCNCC3)c2)cnc1N)c1c(Cl)ccc(F)c1Cl` [crizotinib], in assay [3], the “growth inhibition (isobologram)” value is recorded as “synergistic growth inhibition”.
As for `Cn1cnc2c(F)c(Nc3ccc(Br)cc3Cl)c(C(=O)NOCCO)cc21` [selumetinib], the “growth inhibition (isobologram)” value in assay [4] is “synergistic growth inhibition”.
